Source: ChEMBL document CHEMBL4190343, “Novel deoxyvasicinone derivatives as potent multitarget-directed ligands for the treatment of Alzheimer's disease: Design, synthesis, and biological evaluation” (Eur J Med Chem, 2017)
Calls of active or inactive are those of the source. The calls are words filed in the database; no cut-off is given here.

How the values were obtained:
Acetylcholinesterase [1] = target: T1, Acetylcholinesterase (Homo sapiens, UniProt P22303)
Description: Inhibition of human AChE pre-incubated for 6 mins before ATCI substrate addition and measured after 12 mins by DTNB reagent dependent UV-Vis spectrophotometry based Ellman's method

Cholinesterase = Cholinesterase (Homo sapiens, UniProt P06276)
Description: Inhibition of human BChE pre-incubated for 6 mins before ATCI substrate addition and measured after 12 mins by DTNB reagent dependent UV-Vis spectrophotometry based Ellman's method

Acetylcholinesterase [2] = target: T1, Acetylcholinesterase; experiment: Inhibition of human AChE assessed as inhibitor dissociation constant for enzyme-inhibitor complex pre-incubated for 6 mins before ATCI substrate addition and measured after 12 mins by DTNB reagent dependent Ellman's method based Lineweaver-Burk plot analysis
Acetylcholinesterase [3] = target: T1, Acetylcholinesterase; experiment: Inhibition of human AChE assessed as inhibitor dissociation constant for enzyme-substrate-inhibitor complex pre-incubated for 6 mins before ATCI substrate addition and measured after 12 mins by DTNB reagent dependent Ellman's method based Lineweaver-Burk plot analysis
[4] = Metal chelating activity against Cu2+ ions assessed as reduction in intrinsic fluorescence of compound at 50 uM incubated for 30 mins using CuSO4 by fluorescence spectrophotometry
[5] = Metal chelating activity against Fe2+ ions assessed as reduction in intrinsic fluorescence of compound at 50 uM incubated for 30 mins using FeSO4 by fluorescence spectrophotometry
[6] = Metal chelating activity against Fe3+ ions assessed as reduction in intrinsic fluorescence of compound at 50 uM incubated for 30 mins using FeCl3 by fluorescence spectrophotometry
[7] = Metal chelating activity against Zn2+ ions assessed as reduction in intrinsic fluorescence of compound at 50 uM incubated for 30 mins using ZnCl2 by fluorescence spectrophotometry
[8] = Metal chelating activity against Cu2+ ions assessed as compound-Cu2+ complex formation at 50 uM incubated for 30 mins using CuSO4 by UV-Visible spectrophotometry
[9] = Metal chelating activity against Fe2+ ions assessed as compound-Fe2+ complex formation at 50 uM incubated for 30 mins using FeSO4 by UV-Visible spectrophotometry
[10] = Metal chelating activity against Fe3+ ions assessed as compound-Fe3+ complex formation at 50 uM incubated for 30 mins using FeCl3 by UV-Visible spectrophotometry
[11] = Metal chelating activity against Zn2+ ions assessed as compound-Zn2+ complex formation at 50 uM incubated for 30 mins using ZnCl2 by UV-Visible spectrophotometry
[12] = Metal chelating activity against Cu2+ ions assessed as 1:1 stoichiometry compound-Cu2+ complex formation at 50 uM incubated for 30 mins using CuSO4 by UV-Visible spectrophotometry
[13] = compound: O=C(CNCc1cc(F)cc(F)c1)Nc1ccc2nc3n(c(=O)c2c1)CCC3; experiment: Inhibition of human AChE assessed as ATCI substrate Km at 1 nM pre-incubated for 6 mins before ATCI substrate addition and measured after 12 mins by DTNB reagent dependent Ellman's method based Michaelis-Menten kinetics analysis (reference value: […] mM)
[14] = compound: O=C(CNCc1cc(F)cc(F)c1)Nc1ccc2nc3n(c(=O)c2c1)CCC3; experiment: Inhibition of human AChE assessed as ATCI substrate Km at 5 nM pre-incubated for 6 mins before ATCI substrate addition and measured after 12 mins by DTNB reagent dependent Ellman's method based Michaelis-Menten kinetics analysis (reference value: […] mM)
[15] = compound: O=C(CNCc1cc(F)cc(F)c1)Nc1ccc2nc3n(c(=O)c2c1)CCC3; experiment: Inhibition of human AChE assessed as ATCI substrate Km at 10 nM pre-incubated for 6 mins before ATCI substrate addition and measured after 12 mins by DTNB reagent dependent Ellman's method based Michaelis-Menten kinetics analysis (reference value: […] mM)
[16] = compound: O=C(CNCc1cc(F)cc(F)c1)Nc1ccc2nc3n(c(=O)c2c1)CCC3; experiment: Inhibition of human AChE assessed as ATCI substrate Vmax at 1 nM pre-incubated for 6 mins before ATCI substrate addition and measured after 12 mins by DTNB reagent dependent Ellman's method based Michaelis-Menten kinetics analysis (reference value: […] deltaA/min)
[17] = compound: O=C(CNCc1cc(F)cc(F)c1)Nc1ccc2nc3n(c(=O)c2c1)CCC3; experiment: Inhibition of human AChE assessed as ATCI substrate Vmax at 5 nM pre-incubated for 6 mins before ATCI substrate addition and measured after 12 mins by DTNB reagent dependent Ellman's method based Michaelis-Menten kinetics analysis (reference value: […] deltaA/min)
[18] = compound: O=C(CNCc1cc(F)cc(F)c1)Nc1ccc2nc3n(c(=O)c2c1)CCC3; experiment: Inhibition of human AChE assessed as ATCI substrate Vmax at 10 nM pre-incubated for 6 mins before ATCI substrate addition and measured after 12 mins by DTNB reagent dependent Ellman's method based Michaelis-Menten kinetics analysis (reference value: […] deltaA/min)

Cholinesterase, sequence (P06276 whole entry): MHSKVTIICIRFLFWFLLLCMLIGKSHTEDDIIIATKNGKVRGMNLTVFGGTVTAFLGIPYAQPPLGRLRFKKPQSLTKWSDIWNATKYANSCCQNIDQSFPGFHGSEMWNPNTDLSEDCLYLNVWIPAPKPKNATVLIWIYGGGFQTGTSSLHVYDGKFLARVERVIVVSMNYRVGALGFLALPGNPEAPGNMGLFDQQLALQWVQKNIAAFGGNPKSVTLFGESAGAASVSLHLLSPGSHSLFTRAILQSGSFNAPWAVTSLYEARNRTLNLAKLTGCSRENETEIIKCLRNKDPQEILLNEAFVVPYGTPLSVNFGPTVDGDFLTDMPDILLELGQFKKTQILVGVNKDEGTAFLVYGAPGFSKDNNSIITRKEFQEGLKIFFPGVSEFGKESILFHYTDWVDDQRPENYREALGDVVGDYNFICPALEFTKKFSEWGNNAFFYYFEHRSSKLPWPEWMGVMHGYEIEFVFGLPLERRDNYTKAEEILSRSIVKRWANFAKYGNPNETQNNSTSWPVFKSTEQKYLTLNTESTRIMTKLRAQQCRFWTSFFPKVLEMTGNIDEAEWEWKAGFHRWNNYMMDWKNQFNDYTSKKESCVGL

| Molecule | IC50 (Acetylcholinesterase [1]) [nM] | IC50 (Cholinesterase) [nM] | other results |
| --- | --- | --- | --- |
| O=C(CNCCCc1ccccc1)Nc1ccc2nc3n(c(=O)c2c1)CCC3 | 4.09 | 20.7 | – |
| O=C(CNCc1ccccc1[N+](=O)[O-])Nc1ccc2nc3n(c(=O)c2c1)CCC3 | 30.7 | 103 | – |
| CCCCCCNCC(=O)Nc1ccc2nc3n(c(=O)c2c1)CCC3 | 25.3 | 10.5 | – |
| CCCNCC(=O)Nc1ccc2nc3n(c(=O)c2c1)CCC3 | 310 | 1190 | – |
| CCCCCCCCCCCCNCC(=O)Nc1ccc2nc3n(c(=O)c2c1)CCC3 | 36.7 | 26.8 | – |
| C=CCNCC(=O)Nc1ccc2nc3n(c(=O)c2c1)CCC3 | 66.6 | 16.6 | – |
| C#CCNCC(=O)Nc1ccc2nc3n(c(=O)c2c1)CCC3 | 46.4 | 12.4 | – |
| O=C(CNCc1ccccc1F)Nc1ccc2nc3n(c(=O)c2c1)CCC3 | 528 | 108 | – |
| CCNCC(=O)Nc1ccc2nc3n(c(=O)c2c1)CCC3 | 557 | 1000 | – |
| CC(C)=CCNCC(=O)Nc1ccc2nc3n(c(=O)c2c1)CCC3 | 25.9 | 16.3 | – |
| C=CCCNCC(=O)Nc1ccc2nc3n(c(=O)c2c1)CCC3 | 13.3 | 81.5 | – |
| O=C(CNCc1cc(F)cc(F)c1)Nc1ccc2nc3n(c(=O)c2c1)CCC3 | 7.61 | 2.35 | Ki (Acetylcholinesterase [2]): 9.85 nM; Ki (Acetylcholinesterase [3]): 15.8 nM; Activity [4]: Active; Activity [5]: Active; Activity [6]: Active; Activity [7]: inactive; Activity [8]: Active; Activity [9]: Active; Activity [10]: Active; Activity [11]: inactive; Activity [12]: Active |
| CCCCCCCCCCNCC(=O)Nc1ccc2nc3n(c(=O)c2c1)CCC3 | 24.1 | 37.2 | – |
| Cc1ccccc1CNCC(=O)Nc1ccc2nc3n(c(=O)c2c1)CCC3 | 119 | 107 | – |
| O=C(CNCc1ccccc1)Nc1ccc2nc3n(c(=O)c2c1)CCC3 | 231 | 145 | – |
| CCCCCCCCCCCCCCCCNCC(=O)Nc1ccc2nc3n(c(=O)c2c1)CCC3 | 5.31 | 4.35 | – |
| CCCCNCC(=O)Nc1ccc2nc3n(c(=O)c2c1)CCC3 | 21.2 | 107 | – |
| N#Cc1ccccc1CNCC(=O)Nc1ccc2nc3n(c(=O)c2c1)CCC3 | 16.8 | 29.9 | – |
| O=c1c2ccccc2nc2n1CCC2 [DEOXYVASICINONE] | 62500 | 45100 | – |
| CCCCCCCCNCC(=O)Nc1ccc2nc3n(c(=O)c2c1)CCC3 | 10.6 | 45.7 | – |
| Acetylcholinesterase (Homo sapiens), P22303 (protein) MRPPQCLLHTPSLASPLLLLLLWLLGGGVGAEGREDAELLVTVRGGRLRGIRLKTPGGPVSAFLGIPFAEPPMGPRRFLPPEPKQPWSGVVDATTFQSVCYQYVDTLYPGFEGTEMWNPNRELSEDCLYLNVWTPYPRPTSPTPVLVWIYGGGFYSGASSLDVYDGRFLVQAERTVLVSMNYRVGAFGFLALPGSREAPGNVGLLDQRLALQWVQENVAAFGGDPTSVTLFGESAGAASVGMHLLSPPSRGLFHRAVLQSGAPNGPWATVGMGEARRRATQLAHLVGCPPGGTGGNDTELVACLRTRPAQVLVNHEWHVLPQESVFRFSFVPVVDGDFLSDTPEALINAGDFHGLQVLVGVVKDEGSYFLVYGAPGFSKDNESLISRAEFLAGVRVGVPQVSDLAAEAVVLHYTDWLHPEDPARLREALSDVVGDHNVVCPVAQLAGRLAAQGARVYAYVFEHRASTLSWPLWMGVPHGYEIEFIFGIPLDPSRNYTAEEKIFAQRLMRYWANFARTGDPNEPRDPKAPQWPPYTAGAQQYVSLDLRPLEVRRGLRAQACAFWNRFLPKLLSATDTLDEAERQWKAEFHRWSSYMVHWKNQFDHYSKQDRCSDL | – | – | Km [13]: 329 µM; Km [14]: 369 µM; Km [15]: 434 µM; Vmax [16]: 0.212 deltaA/min; Vmax [17]: 0.19 deltaA/min; Vmax [18]: 0.152 deltaA/min |
